Data set [1] has as its system Helicobacter pylori. The data set can be described thus: Activity against Helicobacter pylori, agar dilution (method of Iwahi et al.), Columbia agar, 4 days growth. The following applies: 96 h, Columbia agar (Oxoid), growth period of 4 days, approximate values, read-out: Appr. MIC 50. The data set is classed as cell-based. An excerpt: The compounds of the formula I were investigated with respect to their activity against Helicobacter pylori following the method described by Tomoyuki Iwahi et al. (Antimicrobial Agents and Chemotherapy, 1991, 490-496) using Columbia agar (Oxoid) and a growth period of 4 days.
In general terms: In agar dilution, organisms are placed on agar that contains the substance at set levels.

In general, melting point refers to the temperature, or range, at which the solid turns liquid.

In the case of `Cc1c(SCC2CCCN(C)C2)ccnc1CNc1cnc2ccccc2c1` (stereo not shown) [Compound 32, [3-Methyl-4-(1-methyl-piperidin-3-ylmethylsulfanyl)-pyridin-2-ylmethyl]-quinolin-3-yl-amine], the melting point lay within 106 to 108 °C. Also, in data set [1], the MIC50 is at most 0.1 µg/mL.

Regarding `Cc1c(SCCOCC(F)(F)F)ccnc1CNc1cnc2ccccc2c1.Cl` [Compound 36, (3-Methyl-4-{2-[2,2,2-trifluoro-ethoxy)-ethylsulfanyl}-pyridin-2-ylmethyl)-quinolin-3-yl-amine hydrochloride], the melting point is 212 to 215 °C (dec.). For the same molecule, the MIC50 in data set [1] is at most 0.1 µg/mL.

Values taken from patent US6479514B1, “Quinoline-aminomethyl-pyridyl derivatives with anti-helicobacter activity” (Altana Pharma AG, priority 1998, dated 2002).
